Patent US12364694B2 (priority 2018, dated 2025)

Assays:
dopamine D1 receptor = target: T1, dopamine D1 receptor (Homo sapiens, UniProt P21728); test: Radioligand binding assay, human recombinant receptor in CHO cells; conditions: read-out: % Inhibition (mean) of control specific binding
T1 construct: expressed in transfected cells; host or cells: CHO

[1] = target: T2, serotonin transporter (SERT) (Homo sapiens, UniProt P31645); test: Radioligand binding assay, human recombinant transporter in CHO cells; conditions: read-out: % Inhibition (mean) of control specific binding
T2 construct: expressed in transfected cells; host or cells: CHO
T2 sequence (P31645 whole entry): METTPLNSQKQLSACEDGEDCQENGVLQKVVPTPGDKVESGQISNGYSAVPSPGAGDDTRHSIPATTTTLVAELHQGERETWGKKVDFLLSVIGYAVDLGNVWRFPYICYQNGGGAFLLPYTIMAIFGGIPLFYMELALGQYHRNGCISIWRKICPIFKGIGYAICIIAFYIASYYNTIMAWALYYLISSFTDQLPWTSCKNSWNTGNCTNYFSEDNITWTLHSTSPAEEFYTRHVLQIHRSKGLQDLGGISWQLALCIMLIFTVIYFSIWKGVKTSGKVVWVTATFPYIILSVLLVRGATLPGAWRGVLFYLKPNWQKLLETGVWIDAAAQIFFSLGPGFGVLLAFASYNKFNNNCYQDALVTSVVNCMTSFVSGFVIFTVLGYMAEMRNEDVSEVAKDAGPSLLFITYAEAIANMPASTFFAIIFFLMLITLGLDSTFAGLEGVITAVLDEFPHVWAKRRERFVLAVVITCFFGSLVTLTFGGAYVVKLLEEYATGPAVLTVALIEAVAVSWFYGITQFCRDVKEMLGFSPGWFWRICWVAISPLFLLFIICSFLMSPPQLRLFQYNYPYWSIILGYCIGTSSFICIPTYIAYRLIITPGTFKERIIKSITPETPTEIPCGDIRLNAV

[2] = target: T3, serotonin 5-HT2A receptor (Homo sapiens, UniProt P28223); test: Radioligand binding assay, human recombinant receptor in HEK cells; conditions: read-out: % Inhibition (mean) of control specific binding
T3 construct: expressed in transfected cells; host or cells: HEK-293
T3 sequence (P28223 whole entry): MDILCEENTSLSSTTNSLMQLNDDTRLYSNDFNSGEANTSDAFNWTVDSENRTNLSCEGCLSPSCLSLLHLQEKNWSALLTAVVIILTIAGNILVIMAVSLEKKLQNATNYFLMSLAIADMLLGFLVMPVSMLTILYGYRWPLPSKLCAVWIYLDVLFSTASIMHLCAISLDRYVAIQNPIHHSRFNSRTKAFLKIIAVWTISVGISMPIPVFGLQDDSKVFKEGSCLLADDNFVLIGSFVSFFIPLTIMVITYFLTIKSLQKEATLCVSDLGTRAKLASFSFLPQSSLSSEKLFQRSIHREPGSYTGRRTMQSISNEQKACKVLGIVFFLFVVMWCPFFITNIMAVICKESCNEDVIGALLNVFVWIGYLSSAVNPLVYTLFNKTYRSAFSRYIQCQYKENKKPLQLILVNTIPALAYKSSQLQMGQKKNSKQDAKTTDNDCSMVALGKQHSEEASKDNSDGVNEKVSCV

dopamine D2S receptor = target: T4, dopamine D2S receptor (Homo sapiens, UniProt P14416); test: as above; conditions: read-out: % Inhibition (mean) of control specific binding
T4 construct: expressed in transfected cells; host or cells: HEK-293
T4 sequence (P14416 1-414 isoform P14416-2): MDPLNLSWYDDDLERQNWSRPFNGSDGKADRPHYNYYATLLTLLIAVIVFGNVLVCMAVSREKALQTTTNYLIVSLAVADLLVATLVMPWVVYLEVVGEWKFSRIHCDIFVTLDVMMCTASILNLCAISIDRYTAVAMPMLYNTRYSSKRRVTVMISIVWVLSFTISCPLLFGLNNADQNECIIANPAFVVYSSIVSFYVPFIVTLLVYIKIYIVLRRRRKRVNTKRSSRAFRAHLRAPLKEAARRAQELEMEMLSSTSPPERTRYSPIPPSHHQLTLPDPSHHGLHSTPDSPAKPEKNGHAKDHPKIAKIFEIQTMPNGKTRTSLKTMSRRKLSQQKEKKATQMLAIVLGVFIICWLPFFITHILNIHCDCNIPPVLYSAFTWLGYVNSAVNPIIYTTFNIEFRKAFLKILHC

in vivo = conditions: rat
[3] = rat, in vivo, po, 10 mg/kg
[4] = target: serotonin 5-HT2 receptor family; conditions: mice, oral dosing, subcutaneous DOI; cited from earlier work
mouse formalin paw test = conditions: subcutaneous paw pre-treatment 30 minutes prior to […] formalin, three doses; cited from earlier work
[5] = system: protein phosphorylation (ERK1, ERK2, Glul, NR2B and TH) in mice nucleus accumbens; conditions: cited from earlier work
[6] = system: mouse marble-burying model for OCD; conditions: positive control, after 30 minutes; cited from earlier work
male Sprague-Dawley rats = conditions: cited from earlier work; for tolerance during repeated dosing: subcutaneous dosing for 28 days, 0.3 and 3 mg/kg; for physical dependence upon cessation of dosing: withdrawal after 28 days subcutaneous dosing

T1 sequence (P21728 whole entry): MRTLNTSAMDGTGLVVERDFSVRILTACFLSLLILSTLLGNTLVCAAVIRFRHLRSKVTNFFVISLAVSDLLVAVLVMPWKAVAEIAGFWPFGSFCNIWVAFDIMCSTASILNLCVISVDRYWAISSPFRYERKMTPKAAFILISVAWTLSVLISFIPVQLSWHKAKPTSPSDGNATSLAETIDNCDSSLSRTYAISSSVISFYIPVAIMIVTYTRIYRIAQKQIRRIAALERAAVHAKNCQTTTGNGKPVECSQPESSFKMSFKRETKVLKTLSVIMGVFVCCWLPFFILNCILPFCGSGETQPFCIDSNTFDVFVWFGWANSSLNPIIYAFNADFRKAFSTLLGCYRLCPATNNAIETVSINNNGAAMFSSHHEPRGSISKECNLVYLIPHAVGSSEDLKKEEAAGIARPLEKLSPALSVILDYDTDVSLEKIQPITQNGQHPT

## [2H]C1([2H])C(=O)Nc2cccc3c2N1[C@H]1CCN(CCCOc2ccc(F)cc2)C[C@@H]31 [Example 1, (6bR,10aS)-1,1-d2-8-(3-(4-fluorophenoxy)propyl)-6b,7,8,9,10,10a-hexahydro-1H-pyrido[3′,4′:4,5]pyrrolo[1,2,3-de]quinoxalin-2(3H)-one]
Dopamine D1 receptor
  inhibition at 0.1 µM: 36.6%
[1]
  inhibition at 1 µM: 34.5%
[2]
  inhibition at 0.01 µM: 64.7%
Dopamine D2S receptor
  inhibition at 0.3 µM: 47.5%

## [2H]C([2H])(Oc1ccc(F)cc1)C([2H])([2H])C([2H])([2H])N1CC[C@H]2[C@@H](C1)c1cccc3c1N2CC(=O)N3 [Example 2, (6bR,10aS)-8-(1,1,2,2,3,3-d6-3-(4-fluorophenoxy)propyl)-6b,7,8,9,10,10a-hexahydro-1H-pyrido[3′,4′: 4,5]pyrrolo[1,2,3-de]quinoxalin-2(3H)-one]
In vivo; po, 10 mg/kg
  AUC: 3660 ng·h/mL
  Cmax: 64.6 ng/mL
  Tmax: 6 h
  concentration at 0.033 h: 1 ng/mL
  concentration at 0.083 h: 10.6 ng/mL
  concentration at 0.5 h: 55.7 ng/mL
  concentration at 1 h: 72.3 ng/mL
  concentration at 2 h: 143 ng/mL
  concentration at 6 h: 260 ng/mL
  concentration at 8 h: 200 ng/mL
  concentration at 12 h: 196 ng/mL
  concentration at 24 h: 3 ng/mL
  concentration at […]: 56.9 ng/mL
In vivo; sc, 3 mg/kg
  AUC: 492 ng·h/mL
  Cmax: 81.4 ng/mL
  Tmax: 1 h
  concentration at 0.033 h: 6 ng/mL
  concentration at 0.083 h: 27.5 ng/mL
  concentration at 0.5 h: 80 ng/mL
  concentration at 1 h: 81.4 ng/mL
  concentration at 2 h: 65.2 ng/mL
  concentration at 6 h: 15 ng/mL
  concentration at 8 h: 6.7 ng/mL
  concentration at 12 h: 3.9 ng/mL
  concentration at 24 h: 2.1 ng/mL
  concentration at 48 h: 2 ng/mL
  concentration at 72 h: 1 ng/mL
  concentration at […]: 48.2 ng/mL
[3]
  plasma concentration: BLQ

## [2H]C([2H])(CC([2H])([2H])N1CC[C@H]2[C@@H](C1)c1cccc3c1N2CC(=O)N3)Oc1ccc(F)cc1 [Example 3, (6bR,10aS)-8-(1,1,3,3-d4-3-(4-fluorophenoxy)propyl)-6b,7,8,9,10,10a-hexahydro-1H-pyrido[3′,4′:4,5]pyrrolo[1,2,3-de]quinoxalin-2(3H)-one]
Dopamine D1 receptor
  inhibition at 0.1 µM: 36.3%
[1]
  inhibition at 1 µM: 31.8%
[2]
  inhibition at 0.01 µM: 64.1%
Dopamine D2S receptor
  inhibition at 0.3 µM: 55.1%

## [2H]c1c([2H])c(OCCCN2CC[C@H]3[C@@H](C2)c2cccc4c2N3CC(=O)N4)c([2H])c([2H])c1F [Example 6, (6bR,10aS)-8-(3-(2,3,5,6-tetradeuterio-4-fluorophenoxy)propyl)-6b,7,8,9,10,10a-hexahydro-1H-pyrido[3′,4′:4,5]pyrrolo[1,2,3-de]quinoxalin-2(3H)-one]
Dopamine D1 receptor
  inhibition at 0.1 µM: 32.6%
[1]
  inhibition at 1 µM: 29.1%
[2]
  inhibition at 0.01 µM: 60.2%
Dopamine D2S receptor
  inhibition at 0.3 µM: 48.7%

## [2H]C([2H])(CCN1CC[C@H]2[C@@H](C1)c1cccc3c1N2CC(=O)N3)Oc1ccc(F)cc1 [Example 7, (6bR,10aS)-8-(3,3-dideuterio-3-(4-fluorophenoxy)propyl)-6b,7,8,9,10,10a-hexahydro-1H-pyrido[3′,4′:4,5]pyrrolo[1,2,3-de]quinoxalin-2(3H)-one]
Dopamine D1 receptor
  inhibition at 0.1 µM: 34.8%
[1]
  inhibition at 1 µM: 31.1%
[2]
  inhibition at 0.01 µM: 63.5%
Dopamine D2S receptor
  inhibition at 0.3 µM: 53.3%

## [2H]c1c([2H])c(OC([2H])([2H])C([2H])([2H])C([2H])([2H])N2CC[C@H]3[C@@H](C2)c2cccc4c2N3C([2H])([2H])C(=O)N4)c([2H])c([2H])c1F [Example 8, (6bR,10aS)-1,1-dideuterio-8-(1,1,2,2,3,3-hexadeuterio-3-(2,3,5,6-tetradeuterio-4-fluorophenoxy)propyl)-6b,7,8,9,10,10a-hexahydro-1H-pyrido[3′,4′:4,5]pyrrolo[1,2,3-de]quinoxalin-2(3H)-one]
In vivo; po, 10 mg/kg
  AUC: 3390 ng·h/mL
  Cmax: 68.4 ng/mL
  Tmax: 6 h
  concentration at 0.033 h: 1.3 ng/mL
  concentration at 0.083 h: 8.6 ng/mL
  concentration at 0.5 h: 45.8 ng/mL
  concentration at 1 h: 62.4 ng/mL
  concentration at 2 h: 133 ng/mL
  concentration at 6 h: 245 ng/mL
  concentration at 8 h: 187 ng/mL
  concentration at 12 h: 181 ng/mL
  concentration at 24 h: 3.3 ng/mL
  concentration at […]: 46.7 ng/mL
In vivo; sc, 3 mg/kg
  AUC: 494 ng·h/mL
  Cmax: 78.9 ng/mL
  Tmax: 1 h
  concentration at 0.033 h: 5.7 ng/mL
  concentration at 0.083 h: 25.7 ng/mL
  concentration at 0.5 h: 76.4 ng/mL
  concentration at 1 h: 78.9 ng/mL
  concentration at 2 h: 62.9 ng/mL
  concentration at 6 h: 14.1 ng/mL
  concentration at 8 h: 6.5 ng/mL
  concentration at 12 h: 4.1 ng/mL
  concentration at 24 h: 2.1 ng/mL
  concentration at 48 h: 2.4 ng/mL
  concentration at 72 h: 1.4 ng/mL
  concentration at […]: 46 ng/mL
[3]
  plasma concentration: BLQ

## [2H]C1([2H])C(=O)Nc2cccc3c2N1[C@H]1CCN(C([2H])([2H])C([2H])([2H])C([2H])([2H])Oc2ccc(F)cc2)C[C@@H]31 [Example 9, (6bR,10aS)-1,1-dideuterio-8-(1,1,2,2,3,3-hexadeuterio-3-(4-fluorophenoxy)-propyl)-6b,7,8,9,10,10a-hexahydro-1H-pyrido[3′,4′:4,5]pyrrolo[1,2,3-de]quinoxalin-2(3H)-one]
Dopamine D1 receptor
  inhibition at 0.1 µM: 35.2%
[1]
  inhibition at 1 µM: 28.4%
[2]
  inhibition at 0.01 µM: 60.1%
Dopamine D2S receptor
  inhibition at 0.3 µM: 49.6%

## O=C1CN2c3c(cccc3[C@@H]3CN(CCCOc4ccc(F)cc4)CC[C@@H]32)N1 [Formula A]
Dopamine D1 receptor
  inhibition at 0.1 µM: 43.4%
[4]
  EC50 blocking DOI-induced head twitch: 0.44 mg/kg, p.o.
[1]
  inhibition at 1 µM: 33.4%
Mouse formalin paw test
  early phase acute pain response and late phase delayed inflammatory response: dose-dependently attenuates both the early phase acute pain response and the late phase delayed inflammatory response
[5]
  effect on ERK2 phosphorylation: marginal effects
  effect on GluR1 phosphorylation: marginal effects
  effect on NR2B phosphorylation: neither the compound of Formula A nor the compound of Formula B has a significant effect
  effect on TH phosphorylation: neither the compound of Formula A nor the compound of Formula B has a significant effect
[2]
  inhibition at 0.01 µM: 63%
Dopamine D2S receptor
  inhibition at 0.3 µM: 53.6%

## O=C1CN2c3c(cccc3[C@@H]3CN(CCCC(=O)c4ccc(F)cc4)CC[C@@H]32)N1 [Formula B, 4-((6bR,10aS)-2-oxo-2,3,6b,9,10,10a-hexahydro-1H,7H-pyrido[3′,4′:4,5]pyrrolo[1,2,3-de]quinoxalin-8-yl)-1-(4-fluoro-phenyl)-butan-1-one]
[4]
  EC50 blocking DOI-induced head twitch: 0.23 mg/kg, p.o.
[5]
  effect on ERK2 phosphorylation: marginal effects
  effect on GluR1 phosphorylation: marginal effects
  effect on NR2B phosphorylation: neither the compound of Formula A nor the compound of Formula B has a significant effect
  effect on TH phosphorylation: neither the compound of Formula A nor the compound of Formula B has a significant effect

## Cc1cccc(C#Cc2ccccc2)n1 [MPEP, 2-methyl-6-(phenylethynyl)pyridine]
[6]
  Marbles Buried: 0.2

## CN1CC[C@]23c4c5ccc(O)c4O[C@H]2[C@@H](O)C=C[C@H]3[C@H]1C5 [Morphine, reference compound]
Male Sprague-Dawley rats
  tolerance during repeated dosing: clear signs of tolerance and dependence
  physical dependence upon cessation of dosing: clear signs of tolerance and dependence

## O=C(CCCN1CCC(O)(c2ccc(Cl)cc2)CC1)c1ccc(F)cc1 [haloperidol]
[5]
  increase in TH phosphorylation: 400-500%

## (6bR,10aS)-8-(1,1,3,3-d4-3-(4-fluorophenoxy)propyl)-6b,7,8,9,10,10a-hexahydro-1H-pyrido[3′,4′:4,5]pyrrolo[1,2,3-de]quinoxalin-2(3H)-one [Example 3]
Male Sprague-Dawley rats
  tolerance during repeated dosing: does not produce tolerance
  physical dependence upon cessation of dosing: not to produce a syndrome of physical dependence
